US9526705B2, “Lipidated glycosaminoglycan particles and their use in drug and gene delivery for diagnosis and therapy” (Tel-Aviv University Future Technology Development L.P., priority 2001, dated 2016)

Experiments:
[1] = calculated from efflux rate constant, 50 minutes incubation
From the text: The independent variable is time. The dependent variable (f) is the percentage of drug released at time=t with respect to the total drug in the system at time t=0.

B16F10 (mouse melanoma) = test: Tumor metastasis model: lung metastases after i.v. B16F10 cells; type: in vivo, C57BL/6 mice; settings: day 21
Method: C57BL/6 female mice were used, which were 12 weeks old at initiation of the experiment. […] The DDS system was LLG in the form of nano particles. The test system was MMC formulated in the novel DDS of the present invention, denoted MMC/DDS.
Group 1 is a control group of healthy mice that were not inoculated with tumor cells.
B16F10 cells were grown in cell culture flasks. […] The injected dose was 5×10^5 cells in 50 μl PBS.
Treatments were given on days 1, 5 and 9. […] All injected volumes were 0.1 ml. The experiment was terminated 21 days post tumor inoculation. The animals were sacrificed, and the lungs were removed, weighed, and fixed in Bouin's solution. Lung weight increase was calculated using the following formula: Lung weight increase(%)=100×(tumor lung weight−normal lung weight)/normal lung weight Surface metastases were counted by an expert using a dissecting microscope.
Quantitative evaluation of metastases in the lungs can be performed by two independent measurements: actual counting of the metastases in excised and properly fixed lungs; and/or measurement of the increase in the weight of the lungs due to the metastases in the animals injected with tumor cells. Both techniques were implemented in the present study.

[2] = system: cell line C26 (mouse colon carcinoma); settings: 4 hours exposure, viable cells 24 hours from start, MMC 30 and 50 μg/ml
From the text: This is an inherent multidrug resistant (MDR) line originating from mouse colon carcinoma.

[3] = system: C-26 cells (mouse colon carcinoma); settings: Run 1
Method: Female BALB/c mice which were 8 weeks old at initiation of the experiment were used. The tumor model employed was C-26 cells (originating from mouse colon carcinoma) injected subcutaneously into the right hind footpad. […] The MMC dose was 2 mg/kg body, in both free and DDS formulations and the DDS dose was 1 mg/ml.
To provide the tumor, C-26 cells were grown in cell culture flasks. At day zero, the cells were harvested, washed several times, counted and immediately injected. The injected dose was 8×10^5 cells in 30 μl.
(§1) Treatments were given on days 5, 12 and 19. Administration was by injection into the tail vein. All injected volumes were 0.1 ml.
Parameters measured for Run 1 were retention in circulation, tumor onset, tumor volume, survival. Parameters measured for Run 2 were survival.

[4] = i.v. tail vein, MMC 2 mg/kg
Method: Female BALB/c mice which were 8 weeks old at initiation of the experiment were used. […] The MMC dose was 2 mg/kg body, in both free and DDS formulations and the DDS dose was 1 mg/ml.
as §1
At selected periods post-injection, animals receiving drug-containing formulations were bled, and samples were treated according to established protocols. MMC concentration was determined by HPLC assay.

[5] = Efficiency of entrapment in gagomers (absorbency, ELISA plate reader); type: physicochemical
Method: The efficiency of entrapment of drugs or other bioactive agents in the gagomers and the kinetics of drug efflux for small molecular weight drugs were determined using absorbency in an ELISA plate reader, with appropriate wavelengths for each given entrapped entity.

[6] = system: MCF7 cells (human breast carcinoma); test: BSA-FITC entry into cells, confocal microscopy; type: cell-based; settings: MCF7, 3.3 mg/ml, 25° C., 60 minutes
Method: Bovine serum albumin tagged with the fluorescent marker FITC (BSA-FITC) in both free form and entrapped in the DDS was used to determine whether DDS can also induce the entry of large macromolecules into cells. The free and the DDS-entrapped BSA-FITC were incubated at 25° C. for 60 minutes with confluent monolayers of MCF7 cells (originating from human breast carcinoma). MCF-7 cells are reported to have two known receptors for hyaluronic acid—ICAM-1 and CD44. The protein/DDS systems were cleaned from the free protein. The free and the entrapped protein were at the same concentration: 3.3 mg/ml. At the end of the incubation the cells were viewed by means of confocal microscopy.

## CC[n+]1c(-c2ccccc2)c2cc(N)ccc2c2ccc(N)cc21 [EtBr, ethidium bromide]
[1]
  efflux of the entrapped marker in the course of the incubation: ≤ 2%

## CO[C@@]12[C@H](COC(N)=O)C3=C(C(=O)C(C)=C(N)C3=O)N1C[C@@H]1N[C@@H]12 [Mitomycin C, mitomycin C]
B16F10 (mouse melanoma); saline group close to 400%
  increase in lung weight, in words: almost the same
B16F10 (mouse melanoma); lungs, MMC 5 mg/Kg
  number of lung metastases versus saline group: no statistical difference
[2]
  cell death (compared to untreated control): under 15%
[3]; 3 i.v. doses
  increase in tumor volume / tumor growth rate: not much different than in the saline group
[3]; treatments on days 5, 12 and 19, MMC 2 mg/kg
  day on which tumor was first detected: 7 days
[4]
  retention in circulation: disappears very quickly from the circulation

## COc1cccc2c1C(=O)c1c(O)c3c(c(O)c1C2=O)C[C@@](O)(C(=O)CO)C[C@@H]3O[C@H]1C[C@H](N)[C@H](O)[C@H](C)O1 [Doxorubicin, doxorubicin]
[5]; Micro-gagomers
  Encapsulation Efficiency (%) By Kinetics: 50.2 ± 1.2%
  Encapsulation Efficiency (%) By Thermodynamics: 52.4 ± 6.3%
[5]; Nano-gagomers
  Encapsulation Efficiency (%) By Kinetics: 53.6 ± 0.9%
  Encapsulation Efficiency (%) By Thermodynamics: 57.0 ± 3.7%

## O=C(N[C@H](CO)[C@H](O)c1ccc([N+](=O)[O-])cc1)C(Cl)Cl [Chloramphenicol]
[5]; Micro-gagomers
  Encapsulation Efficiency (%) By Kinetics: 30.5 ± 1.9%
  Encapsulation Efficiency (%) By Thermodynamics: 39.3 ± 3.9%
[5]; Nano-gagomers
  Encapsulation Efficiency (%) By Kinetics: 47.1 ± 1.5%
  Encapsulation Efficiency (%) By Thermodynamics: 47.4 ± 0.3%

## α-Interferon
[5]; DDS microparticles, insulin concentration 10 mg/ml
  Encapsulation Efficiency (%): 72.5 ± 3.7%

## free BSA-FITC: Bovine serum albumin tagged with the fluorescent marker FITC, free form
[6]
  protein entry into the cells: Some of the protein gained entry into the cell
  protein entry into the nucleus: not inside the nucleus
